{"source": "patent US11752125B2", "about": "“Anti-neuroinflammatory and protective compounds in Achillea fragrantissima” (THE STATE OF ISRAEL MINISTRY OF AGRICULTURE & RURAL …, priority 2013, dated 2023)", "key": {"COX-2": {"tested_on": "COX-2", "assay": "COX-2 transcripts in LPS-stimulated microglial cells (real-time PCR)", "format": "cell-based, rat", "details": "20 μg/mL; LPS 4.5 ng/mL, 5 h", "experimental": "(§1) RNA was extracted by the RNeasy Plus Mini Kit (Qiagen, Hilden, Germany) according to the manufacturer's instructions. Genomic DNA was removed from the RNA samples by using 50 units of RNase-free DNaseI at 37° C. for 1 h. RNA ([…]) was converted to cDNA using the Thermo Scientific Verso cDNA kit (Thermo Fisher Scientific Inc) following the manufacturer's protocol. The cDNA was used for quantitative real-time PCR amplification with TaqMan chemistry (Applied Biosystems) using Rat MMP9, TNFα, IL1β, iNOS, COX2 pre-designed TaqMan Gene Expression Assay from Applied Biosystems (Rn00579162_m1, Rn00562055_m1, Rn00580432_m1, Rn00561646_m1, Rn01483828_m1, respectively). […] All results from three technical replicates were normalized relative to α-Tubulin (Rn01532518.g1) and GAPDH (Rn01775763.g1), respectively, and expressed as relative expression ratios calculated (relative quantity, RQ) using the comparative method and based on the data that were created by the ABI PRISM 7700 Sequence Detection System (using version 1.6 software).\n(§2) Procedure 23. Measurement of IL-1Beta, TNFalpha, iNOS, COX-2 and MMP-9 Transcripts in LPS-Activated Microglial Cells by Quantitative Real-Time PCR Analysis. • 1. […]\n(§3) Microglial cells were treated with 20 μg/mL of achillolide A, followed by stimulation with LPS (4.5 ng/mL). […] The results are expressed as percentages relative to LPS-stimulated cells. […]"}, "IL-1β": {"tested_on": "IL-1β", "assay": "IL-1β transcripts in LPS-stimulated microglial cells (real-time PCR)", "format": "cell-based, rat", "details": "20 μg/mL; LPS 4.5 ng/mL, 5 h", "experimental": "as §1, §2, §3"}, "[1]": {"tested_on": "LPS-activated splenocytes", "assay": "Cytokine secretion from LPS-activated splenocytes (ELISA)", "format": "cell-based, mouse", "details": "LPS 5 μg/mL; 24 h (IL-2) or 48 hr", "experimental": "1. Sacrifice Balb/c mice by decapitation. 2. Remove spleens from mice, pool, and squeeze to single cell suspension 3. Lyse red blood cells using lysis buffer, and wash cells several times. 4. Plate splenocytes (5×10^6 cells/well) on a 24-well tissue culture plate, in DMEM containing 10% FBS, 2 mM glutamine, 100 U/ml penicillin and 100 micrograms/mL streptomycin; 5. Treat cells with freshly diluted AcA of the invention; 6. Activate […] with lipopolysaccharide (LPS, 5 micrograms/mL); 7. Collect conditioned media for the measurement of cytokine levels; IL-2, after 24 h; IFNγ, TNF-α, IL-10, IL-12 and IL-6 after 48 hr. 8. Measure the levels of cytokines by ELISA; Ten naive Balb/c mice were sacrificed by decapitation. […] Spleens were removed from mice, pooled and squeezed to single cell suspension. Red blood cells were lysed using lysis buffer, cells were washed several times, and were plated (5×10^6 cells/well/ml) on a 24-well tissue culture plate. Cells were then stimulated with LPS (5 μg/mL) in the presence or absence of achillolide A. Conditioned media of the cells were collected for analysis: IL-2, after 24 h; IFNγ, TNF-α, IL-10, IL-12 and IL-6 after 48 hr. Cytokine levels were measured by ELISA in supernatants collected at the indicated time points. Data represent the mean±SEM from two different experiments performed in duplicates. […]"}, "N2a neuronal cells": {"tested_on": "N2a neuronal cells", "assay": "SNP-induced ROS elevation in N2a cells", "format": "cell-based", "details": "TTF 2 μM; SNP 250 μM; 20 h", "experimental": "N2a neuronal cells were pre-loaded with DCF-DA for 30 min and washed. TTF (2 μM) was added to cells before (−2 h, −1 h), concomitant with (0) or after (1 h, 2 h) the addition of SNP (250 μM). ROS levels in neuronal cells were measured 20 h after the application of SNP. The results are shown in FIG. 18 and are the mean±SEM of two different experiments (n=15)."}, "MEK1": {"tested_on": "MEK1", "assay": "SNP-induced MEK1 phosphorylation in N2a cells (ELISA)", "format": "cell-based", "details": "concomitant treatment 40 min, total protein not affected", "experimental": "N2a cells were treated concomitantly with SNP and TTF for 40 min. Cells were extracted and the levels of phosphorylated or total MEK1 were determined by specific ELISA kits. The results are shown in FIG. 20 are the mean±SEM of two different experiments […]."}}, "data": [{"smiles": "C=C1CCC2=C(CO)C(=O)O[C@H]2/C=C(\\C)[C@H](OC(C)=O)CC1=O", "note": "[achillolide A]", "values": [{"measurement": "effect on LPS-induced COX-2 transcript levels", "setting": "COX-2", "result": "significantly inhibited"}, {"measurement": "effect on LPS-induced IL-1β transcript levels", "setting": "IL-1β", "result": "significantly inhibited"}, {"measurement": "effect on cytokine secretion (IL-2, IFNγ, TNF-α, IL-10, IL-12, IL-6)", "setting": "[1]", "result": "Downregulates"}]}, {"smiles": "COc1cc(-c2oc3cc(OC)c(OC)c(O)c3c(=O)c2O)ccc1O", "note": "[TTF, 3,5,4′-trihydroxy-6,7,3′-trimethoxyflavone]", "values": [{"measurement": "effect on SNP-induced ROS elevation", "setting": "N2a neuronal cells", "result": "attenuates the elevation in ROS levels"}, {"measurement": "effect on SNP-induced phosphorylation of MEK1", "setting": "MEK1", "result": "significantly inhibited"}]}]}
